Experimental data taken from publication PMC11876601 (Molecular Systems Biology, 2025).

What was measured:
[1] = test system: HPDE (immortalized pancreatic duct cell line); experiment: Drug combination viability screen (ATPlite, 72 h); type: cell-based, human; conditions: single agent, HPDE;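 further: area under vehicle-normalized viability curve scaled 0 to 100 percent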
Description: (§1) Cell viability was assessed by measuring ATP levels to indicate metabolic activity.
(§2) Afterward, small amounts were transferred to 384-well intermediate plates (Greiner Bio-One GmbH, Germany). […] For drug combination screening, 1000 to 5000 cells were seeded into 384-well plates (CulturPlate™, Perkin Elmer, MA, USA) using a Multidrop™ Combi Reagent Dispenser (Thermo Scientific, MA, USA) in 50 µl medium per well 24 h prior to drug treatment (seeding densities see Appendix Table S1). […] The final DMSO concentration in each well was 0.2%. […] Eight wells per plate without library drug served as negative controls, and sixteen wells per plate containing 5 µM Staurosporine served as positive controls. Control plates not containing any drug were used to correct for incubation effects, and data quality was assessed by calculation of Z-prime of positive and negative controls according to1 Z-prime=1−3SDpos+3SDneg/[…] where SD is the standard deviation. […] Dose–response curves from the experimental and hypothetical data were compared, and shifts in AUC were used to describe combination effects (AUC∆ = AUChypothetical − AUCexperimental). […] Only combinations with R^2 > 0.8 in both conditions were considered in the synergy analysis.

[2] = test system: 13 PDAC cell lines; experiment: Phenotypic drug combination viability screen (ATPlite, 72 h), cell line panel; type: cell-based, human; conditions: for median AUC across all cell lines: single agent, 72 h
Description: as §1, §2

[3] = test system: AsPC-1; experiment: cells; design: ATPlite luminescence viability of PDAC cell lines, 11-dose single-agent curves, 4-parameter fit; conditions: Homo sapiens, ASPC1, 72 h, read-out: EC50 [nM]
How it was run: (§3)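 Drug-combination screening used cells plated at 1000 to 5000 per well one day before treatment. Final DMSO was 0.2%. Each plate held untreated negative-control wells and 5 µM staurosporine positive-control wells.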

[4] = test system: Colo-357; experiment: cells; design: ATPlite luminescence viability of PDAC cell lines, 11-dose single-agent curves, 4-parameter fit; conditions: Homo sapiens, COLO357, 72 h, read-out: EC50 [nM]
How it was run: as §3

[5] = test system: Capan-1; experiment: cells; design: ATPlite luminescence viability of PDAC cell lines, 11-dose single-agent curves, 4-parameter fit; conditions: Homo sapiens, CAPAN-1, 72 h, read-out: EC50 [nM]
How it was run: as §3

[6] = test system: Dan-G; experiment: cells; design: ATPlite luminescence viability of PDAC cell lines, 11-dose single-agent curves, 4-parameter fit; conditions: 72 h, read-out: EC50 [nM]
How it was run: as §3

[7] = test system: PANC-1; experiment: cells; design: ATPlite luminescence viability of PDAC cell lines, 11-dose single-agent curves, 4-parameter fit; conditions: Homo sapiens, PANC-1, 72 h, read-out: EC50 [nM]
How it was run: as §3

[8] = test system: HuP-T4; experiment: cells; design: ATPlite luminescence viability of PDAC cell lines, 11-dose single-agent curves, 4-parameter fit; conditions: Homo sapiens, HuP-T4, 72 h, read-out: EC50 [nM]
How it was run: as §3

[9] = test system: BxPC-3; experiment: cells; design: ATPlite luminescence viability of PDAC cell lines, 11-dose single-agent curves, 4-parameter fit; conditions: Homo sapiens, BXPC-3, 72 h, read-out: EC50 [nM]
How it was run: as §3

[10] = test system: PSN-1; experiment: cells; design: ATPlite luminescence viability of PDAC cell lines, 11-dose single-agent curves, 4-parameter fit; conditions: Homo sapiens, PSN1, 72 h, read-out: EC50 [nM]
How it was run: as §3

[11] = test system: HPDE; experiment: cells; design: ATPlite luminescence viability of PDAC cell lines, 11-dose single-agent curves, 4-parameter fit; conditions: HPDE, 72 h, read-out: EC50 [nM]
How it was run: as §3

[12] = test system: MiaPaCa-2; experiment: cells; design: ATPlite luminescence viability of PDAC cell lines, 11-dose single-agent curves, 4-parameter fit; conditions: Homo sapiens, MIA PaCa-2, 72 h, read-out: EC50 [nM]
How it was run: as §3

[13] = test system: PaTu-8988-T; experiment: cells; design: ATPlite luminescence viability of PDAC cell lines, 11-dose single-agent curves, 4-parameter fit; conditions: Homo sapiens, PaTu 8988t, 72 h, read-out: EC50 [nM]
How it was run: as §3

[14] = test system: FAMPAC; experiment: cells; design: ATPlite luminescence viability of PDAC cell lines, 11-dose single-agent curves, 4-parameter fit; conditions: 72 h, read-out: EC50 [nM]
How it was run: as §3

[15] = test system: Suit2-07; experiment: cells; design: ATPlite luminescence viability of PDAC cell lines, 11-dose single-agent curves, 4-parameter fit; conditions: 72 h, read-out: EC50 [nM]
How it was run: as §3

## CCc1cnn2c(NCc3ccc[n+]([O-])c3)cc(N3CCCC[C@H]3CCO)nc12 [Dinaciclib]
[1]
  AUC: 38%
[2]; any of the cell lines, GEM low and GEM high
  synergy with GEM (Bliss model, ΣAUC∆ > 10%): No synergy
[2]
  median AUC across all cell lines: 40%

## O=C(c1ccc(F)c(F)c1Nc1ccc(I)cc1F)N1CC(O)([C@@H]2CCCCN2)C1 [Cobimetinib]
[2]
  median AUC across all cell lines: < 70%
[3]
  EC50: 13.7 nM
[4]
  EC50: 5300 nM
[5]
  EC50: 8510 nM
[6]
  EC50: > 10000 nM
[7]
  EC50: > 10000 nM
[8]
  EC50: > 10000 nM
[9]
  EC50: 101 nM
[10]
  EC50: 12.3 nM
[11]
  EC50: 4490 nM
[12]
  EC50: 6.21 nM
[13]
  EC50: 5570 nM
[14]
  EC50: 39.5 nM
[15]
  EC50: 752 nM

## CC(C)n1nc(-c2ccc3oc(N)nc3c2)c2c(N)ncnc21 [Sapanisertib]
[1]
  AUC: < 60%
[2]
  median AUC across all cell lines: 54%
[3]
  EC50: 1.5 nM
[4]
  EC50: 10.8 nM
[5]
  EC50: 135 nM
[6]
  EC50: 8.08 nM
[7]
  EC50: 70.5 nM
[8]
  EC50: 1510 nM
[9]
  EC50: 11.2 nM
[10]
  EC50: 23.2 nM
[11]
  EC50: 11.7 nM
[12]
  EC50: 10.1 nM
[13]
  EC50: 3.95 nM
[14]
  EC50: 2.05 nM
[15]
  EC50: 14.2 nM

## COc1c(OCCCN2CCOCC2)ccc2c1N=C(NC(=O)c1cnc(N)nc1)N1CCN=C21 [Copanlisib]
[2]
  median AUC across all cell lines: < 70%
[3]
  EC50: 175 nM
[4]
  EC50: 17.6 nM
[5]
  EC50: 21.6 nM
[6]
  EC50: 29.8 nM
[7]
  EC50: 58.8 nM
[8]
  EC50: 48 nM
[9]
  EC50: 113 nM
[10]
  EC50: 787 nM
[11]
  EC50: 283 nM
[12]
  EC50: 65.6 nM
[13]
  EC50: 101 nM
[14]
  EC50: 1110 nM
[15]
  EC50: 108 nM
